Test results taken from patent publication US12459951B2, “Compounds that interact with RAS superfamily proteins for treatment of cancers, inflammatory diseases, rasopathies, and fibrotic disease” (SHY Therapeutics, LLC, priority 2022, dated 2025).

Tested on: Erk1/2 phosphorylation
Experiment: Erk1/2 Phosphorylation Assay (western blot), Panc-1
Format: cell-based, human
Settings: at 10 μM, * = activation
Description: Protocol for Western Erk1/2 Cell-Based Phosphorylation Assay
This assay is referred to as the “Erk1/2 Phosphorylation Assay” throughout this application.
Cell lines: Human tumor-derived pancreatic cancer cell line Panc-1 (expressing KRas G12D mutant) was purchased from American Type Culture Collection and grown in complete DMEM-High Glucose medium, supplemented with penicillin (100 U/mL), streptomycin (100 μg/mL), and 10% heat-inactivated FBS at 37° C. in a humidified incubator with 5% CO2.
Method 1: Cells were plated at 350000 cells/well density in a 12-well plate, allowed 3 hours to adhere to the plate, then starved in the appropriate medium in the presence of 0.5% FBS overnight. The small molecules to be tested were added to the cells in the final concentration of 10 μM in the presence of 0.3% DMSO for 6 hours incubation at 37° C. For IC50 value determination, serial dilutions of compounds were added to cells under the same conditions. Next, cells were stimulated with 1.5 ng/ml EGF for 15 minutes then cells were lysed with lysis buffer containing 1% Triton X-100, EDTA, and Halt™ Protease & Phosphatase Inhibitor Cocktail (Thermo Scientific). Protein concentration was assessed by BCA protein assay (Thermo Scientific). Phosphorylation level of Erk1/2 was determined by western blot.
Method 2: Cells were plated at 350000 cells/well density in a 12-well plate in 10% FBS. The next day small molecules to be tested were added to the cells in the final concentration of 10 μM in the presence of 0.3% DMSO for 6 hours incubation at 37° C. For IC50 value determination, serial dilutions of compounds were added to cells under the same conditions. Next, cells were lysed with lysis buffer containing 1% Triton X-100, EDTA, and Halt™ Protease & Phosphatase Inhibitor Cocktail (Thermo Scientific). Protein concentration was assessed by BCA protein assay (Thermo Scientific). Phosphorylation level of Erk1/2 was determined by western blot.
Western blot protocol: Equal amounts of protein (15-50 μg) were separated by SDS-PAGE and transferred to nitrocellulose membranes (Invitrogen by Thermo Fisher Scientific). The membrane was stained with Ponceau S Stain (Boston BioProducts) to verify uniform protein loading. Membranes were blocked with 10% milk and phosphorylation levels of Erk1/2 were assessed by incubating overnight at 4° C. with anti-phospho-p44/42 (Thr202/Tyr204) antibody (Cell Signaling) followed by HRP-conjugated secondary antibody (Jackson Immunoresearch, West Grove, PA). Bands were incubated in Amersham ECL Prime Western Blotting Detection Reagent (GE Healthcare) and visualized using the ChemiDoc MP imaging system (Bio-Rad).

Row | SMILES | % inh of Erk1/2 phosphorylation in Panc-1
1 | Cc1c(-c2ccn(C)n2)cn2nc(-c3nccn3C)nc(Nc3cc(OCCO)ncn3)c12 [Compound 101, 2-((6-((5-Methyl-2-(1-methyl-1H-imidazol-2-yl)-6-(1-methyl-1H-pyrazol-3-yl)pyrrolo[2,1-f][1,2,4]triazin-4-yl)amino)pyrimidin-4-yl)oxy) ethan-1-ol] | A* (1-25% activation)
2 | COc1ccnc(Nc2nc(-c3nccn3C)nn3cc(-c4cccnc4)c(-c4ccccn4)c23)c1 [Compound 166, N-(4-Methoxypyridin-2-yl)-2-(1-methyl-1H-imidazol-2-yl)-5-(pyridin-2-yl)-6-(pyridin-3-yl)pyrrolo[2,1-f][1,2,4]triazin-4-amine] | B* (26-49% activation)
3 | COc1cc(Nc2nc(-c3nccn3C)nn3cc(-c4cccnc4)c(-c4ccccn4)c23)ncn1 [Compound 167, N-(6-Methoxypyrimidin-4-yl)-2-(1-methyl-1H-imidazol-2-yl)-5-(pyridin-2-yl)-6-(pyridin-3-yl)pyrrolo[2,1-f][1,2,4]triazin-4-amine] | A (1-25% inhibition)
4 | CO[C@@H]1CC[C@@H](Nc2nc(-c3nccn3C)nn3cc(-c4cccnc4)c(C)c23)C1 (racemic) [Compound 154, rac N-((1R,3R)-3-methoxy-cyclopentyl)-5-methyl-2-(1-methyl-1H-imidazol-2-yl)-6-(pyridin-3-yl)pyrrolo[2,1-f][1,2,4]triazin-4-amine] | C* (46-84% activation)
5 | Cc1c(-c2ccn(C)n2)cn2nc(-c3nccn3C)nc(Nc3n[nH]c(C4CC4)n3)c12 [Compound 113, N-(5-Cyclopropyl-1H-1,2,4-triazol-3-yl)-5-methyl-2-(1-methyl-1H-imidazol-2-yl)-6-(1-methyl-1H-pyrazol-3-yl)pyrrolo[2,1-f][1,2,4]triazin-4-amine] | D* (85-100% activation)
6 | COc1cc(Nc2nc(-c3nccn3C)nn3cc(-c4ccn(C(F)F)n4)c(C)c23)ncn1 [Compound 98, 6-(1-(Difluoromethyl)-1H-pyrazol-3-yl)-N-(6-methoxypyrimidin-4-yl)-5-methyl-2-(1-methyl-1H-imidazol-2-yl)pyrrolo[2,1-f][1,2,4]triazin-4-amine] | D* (85-100% activation)
7 | COc1cc(-c2cn3nc(-c4nccn4C)nc(N[C@H]4C[C@H](OC)C4)c3c2C)ccn1 [Compound 160, N-((1r,3r)-3-Methoxycyclobutyl)-6-(2-methoxypyridin-4-yl)-5-methyl-2-(1-methyl-1H-imidazol-2-yl)pyrrolo[2,1-f][1,2,4]triazin-4-amine] | A* (1-25% activation)
8 | CO[C@H]1C[C@@H](Nc2nc(-c3nccn3C)nn3cc(-c4cccnc4)c(C)c23)C1 [Compound 153, N-((1s,3s)-3-methoxy-cyclobutyl)-5-methyl-2-(1-methyl-1H-imidazol-2-yl)-6-(pyridin-3-yl)pyrrolo[2,1-f][1,2,4]triazin-4-amine] | A (1-25% inhibition)
9 | CO[C@H]1CC[C@@H](Nc2nc(-c3nccn3C)nn3cc(-c4cccnc4)c(C)c23)C1 (racemic) [Compound 155, rac N-((1R,3S)-3-methoxy-cyclopentyl)-5-methyl-2-(1-methyl-1H-imidazol-2-yl)-6-(pyridin-3-yl)pyrrolo[2,1-f][1,2,4]triazin-4-amine] | A* (1-25% activation)
10 | Cc1c(-c2ccn(C)n2)cn2nc(-c3nccn3C)nc(Cl)c12 [Compound 99, 4-Chloro-5-methyl-2-(1-methyl-1H-imidazol-2-yl)-6-(1-methyl-1H-pyrazol-3-yl)pyrrolo[2,1-f][1,2,4]triazine] | D* (85-100% activation)
11 | Cc1c(-c2ccn(C3CC3)n2)cn2nc(-c3nccn3C)nc(Nc3cc(OC(F)F)ccn3)c12 [Compound 139, 6-(1-Cyclopropyl-1H-pyrazol-3-yl)-N-(4-(difluoromethoxy)pyridin-2-yl)-5-methyl-2-(1-methyl-1H-imidazol-2-yl)pyrrolo[2,1-f][1,2,4]triazin-4-amine] | D* (85-100% activation)
12 | COCCO[C@H]1C[C@H](Nc2nc(-c3nccn3C)nn3cc(-c4ccn(C)n4)c(C)c23)C1 [Compound 130, N-((1r,3r)-3-(2-Methoxyethoxy)cyclobutyl)-5-methyl-2-(1-methyl-1H-imidazol-2-yl)-6-(1-methyl-1H-pyrazol-3-yl)pyrrolo[2,1-f][1,2,4]triazin-4-amine] | B* (26-49% activation)
13 | COc1cnc(Nc2nc(-c3nccn3C)nn3cc(-c4ccn(C)n4)c(C)c23)nc1.Cl [Compound 117, N-(5-Methoxypyrimidin-2-yl)-5-methyl-2-(1-methyl-1H-imidazol-2-yl)-6-(1-methyl-1H-pyrazol-3-yl)pyrrolo[2,1-f][1,2,4]triazin-4-amine hydrochloride salt] | B (26-49% inhibition)
14 | COc1cccnc1Nc1nc(-c2nccn2C)nn2cc(-c3ccn(C)n3)c(C)c12 [Compound 112, N-(3-Methoxypyridin-2-yl)-5-methyl-2-(1-methyl-1H-imidazol-2-yl)-6-(1-methyl-1H-pyrazol-3-yl)pyrrolo[2,1-f][1,2,4]triazin-4-amine] | A* (1-25% activation)
15 | COCCO[C@H]1C[C@H](Nc2nc(-c3nccn3C)nn3cc(-c4cccnc4)c(C)c23)C1 [Compound 152, N-((1r,3r)-3-(2-methoxyethoxy)cyclo-butyl)-5-methyl-2-(1-methyl-1H-imidazol-2-yl)-6-(pyridin-3-yl)pyrrolo[2,1-f][1,2,4]triazin-4-amine] | B* (26-49% activation)
16 | COCCO[C@H]1C[C@H](Nc2nc(-c3nccn3C)nn3cc(-c4ccnc(OC)c4)c(C)c23)C1 [Compound 161, N-((1r,3r)-3-(2-Methoxy-ethoxy)cyclo-butyl)-6-(2-methoxy-pyridin-4-yl)-5-methyl-2-(1-methyl-1H-imidazol-2-yl)pyrrolo[2,1-f][1,2,4]triazin-4-amine] | A (1-25% inhibition)
17 | Cc1c(-c2ccn(C3CC3)n2)cn2nc(-c3nccn3C)nc(Nc3cc(OCCN(C)C)ccn3)c12 [Compound 147, 6-(1-Cyclopropyl-1H-pyrazol-3-yl)-N-(4-(2-(dimethylamino)ethoxy)pyridin-2-yl)-5-methyl-2-(1-methyl-1H-imidazol-2-yl)pyrrolo[2,1-f][1,2,4]triazin-4-amine] | A* (1-25% activation)
18 | COc1cc(Nc2nc(-c3nccn3C)nn3cc(-c4ccn(C5CC5)n4)c(C)c23)ncn1 [Compound 135, 6-(1-Cyclopropyl-1H-pyrazol-3-yl)-N-(6-methoxypyrimidin-4-yl)-5-methyl-2-(1-methyl-1H-imidazol-2-yl)pyrrolo[2,1-f][1,2,4]triazin-4-amine] | D* (85-100% activation)
19 | Cc1c(-c2ccn(C(C)C)n2)cn2nc(-c3nccn3C)nc(Nc3cc(OCCN(C)C)ncn3)c12 [Compound 123, N-(6-(2-(Dimethylamino)ethoxy)pyrimidin-4-yl)-6-(1-isopropyl-1H-pyrazol-3-yl)-5-methyl-2-(1-methyl-1H-imidazol-2-yl)pyrrolo[2,1-f][1,2,4]triazin-4-amine] | A* (1-25% activation)
20 | Cc1c(-c2ccn(C)n2)cn2nc(-c3nccn3C)nc(Nc3nccn3C)c12 [Compound 106, 5-Methyl-N,2-bis(1-methyl-1H-imidazol-2-yl)-6-(1-methyl-1H-pyrazol-3-yl)pyrrolo[2,1-f][1,2,4]triazin-4-amine] | 0 (0% inhibition)
21 | Cc1c(-c2ccn(C3CC3)n2)cn2nc(-c3nccn3C)nc(Nc3cc(OCCO)ccn3)c12 [Compound 146, 2-((2-((6-(1-Cyclopropyl-1H-pyrazol-3-yl)-5-methyl-2-(1-methyl-1H-imidazol-2-yl)pyrrolo[2,1-f][1,2,4]triazin-4-yl)amino)pyridin-4-yl)oxy)ethan-1-ol] | D* (85-100% activation)
22 | Cc1c(-c2ccn(C3CC3)n2)cn2nc(-c3nccn3C)nc(Nc3cc(OC(F)(F)F)ccn3)c12 [Compound 138, 6-(1-Cyclopropyl-1H-pyrazol-3-yl)-5-methyl-2-(1-methyl-1H-imidazol-2-yl)-N-(4-(trifluoromethoxy)pyridin-2-yl)pyrrolo[2,1-f][1,2,4]triazin-4-amine] | D* (85-100% activation)
